In series [1] the target is T1, UDP-3-O-acyl-N-acetylglucosamine deacetylase (Pseudomonas aeruginosa (strain ATCC 15692 / PAO1 / 1C / PRS 101 / LMG12228)) (UniProt P47205).
T1 sequence (whole entry): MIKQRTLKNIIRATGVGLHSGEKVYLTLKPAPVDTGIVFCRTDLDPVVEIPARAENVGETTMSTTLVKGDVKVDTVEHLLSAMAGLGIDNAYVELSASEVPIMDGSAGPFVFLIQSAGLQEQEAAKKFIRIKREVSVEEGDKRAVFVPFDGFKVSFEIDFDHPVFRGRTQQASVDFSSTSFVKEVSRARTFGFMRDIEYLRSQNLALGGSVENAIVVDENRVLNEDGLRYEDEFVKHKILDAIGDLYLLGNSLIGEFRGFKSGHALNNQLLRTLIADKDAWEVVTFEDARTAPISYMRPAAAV

For series [2], the system named is Pseudomonas aeruginosa PA14. Put plainly: Inhibition of LpxC in Pseudomonas aeruginosa PA14 assessed as reduction in microbial growth incubated for 22 hrs by MTT assay. In general terms: Tetrazolium dyes change colour on reduction, which living cells bring about.
The target in series [3] is T2, UDP-3-O-acyl-N-acetylglucosamine deacetylase (Escherichia coli K-12) (UniProt P0A725).
T2 sequence (whole entry): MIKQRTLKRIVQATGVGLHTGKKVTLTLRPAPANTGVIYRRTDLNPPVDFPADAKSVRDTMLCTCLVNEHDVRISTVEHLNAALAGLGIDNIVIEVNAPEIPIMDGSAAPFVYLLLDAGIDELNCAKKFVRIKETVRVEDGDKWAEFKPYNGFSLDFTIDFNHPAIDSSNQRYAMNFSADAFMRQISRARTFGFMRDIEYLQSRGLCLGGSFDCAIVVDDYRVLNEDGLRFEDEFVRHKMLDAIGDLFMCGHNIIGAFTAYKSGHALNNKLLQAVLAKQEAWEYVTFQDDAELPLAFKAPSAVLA
As to the kind of experiment: Inhibition of LpxC in Escherichia coli DH5[alpha] assessed as reduction in microbial growth incubated for 22 hrs by MTT assay.

Series [4] deals with T2, UDP-3-O-acyl-N-acetylglucosamine deacetylase (Escherichia coli K-12). As to the kind of experiment: Inhibition of LpxC in Escherichia coli AB1157 assessed as reduction in microbial growth incubated for 22 hrs by MTT assay.
Series [5] can be described thus: Intrinsic clearance in human liver microsomes assessed as per gram protein at 0.1 umol/L in presence of NADPH by LC/MS/MS method. Type of series: ADME, microsome. The settings on record: 0.1 µM. (In general: Liver microsomes are a subcellular fraction often used to study metabolism.)
The nature of series [6]: Intrinsic clearance in mouse liver microsomes assessed as per gram protein at 0.1 umol/L in presence of NADPH by LC/MS/MS method. The class given is ADME, microsome. On the set-up: unit not given here. The settings on record: 0.1 µM.
The nature of series [7]: Elimination half life in mouse liver microsomes at 0.1 umol/L in presence of NADPH by LC/MS/MS method. The settings on record: read-out: beta t1/2. The class given is ADME, microsome.
A short description of series [8]: Elimination half life in human liver microsomes at 0.1 umol/L in presence of NADPH by LC/MS/MS method. The class given is ADME, microsome. The settings on record: read-out: beta t1/2.
The nature of series [9]: Stability in human liver microsomes assessed as drug netabolism at 0.1 umol/L after 60 mins in presence of NADPH by LC/MS/MS method. Type of series: ADME, microsome. The settings on record: 1 h, 0.1 µM.

≈ marks a conversion by molar mass, not a printed value.

As for `C[C@@H](O)[C@H](NC(=O)[C@H]1CN(c2ccc(-c3ccccc3)cc2)C(=O)O1)C(=O)NO`, the MIC in series [1], in series [2], in series [3] and in series [4] was greater than 256 µg/mL in each case.
In the case of `C[C@@H](O)[C@H](NC(=O)c1ccc(C#CC#CC2CC2)c(F)c1)C(=O)NO`, the MIC in [1] was 0.63 µg/mL (≈ 1.83 µM); in [2], 0.63 µg/mL; in series [3], 0.31 µg/mL; in series [4] it was 0.4 µg/mL. Moreover, the intrinsic clearance in series [5] came to 1 mL/min/g. Also, the “intrinsic clearance in liver microsomes” value in series [6] is listed as 15. Further, the half-life at 0.1 µM in [7] stood at 2.38 h; in series [8], 44.4 h.
For `C[C@@H](O)[C@H](NC(=O)c1ccc(C#CC#CC2CC2)cn1)C(=O)NO`, the MIC in series [1] was 20 µg/mL (≈ 61.1 µM); in [2], 10 µg/mL; in [3], 0.625 µg/mL; in series [4] it was 1.25 µg/mL.
`CC(C)(N)[C@H](NC(=O)c1ccc(C#CC#CC2CC2)cc1O)C(=O)NO`: the MIC turned out to be 0.625 µg/mL (≈ 1.76 µM) in series [1], 0.625 µg/mL in [2], 0.078 µg/mL in series [3] and 0.078 µg/mL in series [4]. Besides, in series [5], the intrinsic clearance was 0 mL/min/g. For the same compound, in series [6], the “intrinsic clearance in liver microsomes” value worked out at 22. Moreover, the Stability result in series [9] is “Stable”. For the same compound, the half-life at 0.1 µM in [7] stood at 1.58 h.
As for `COc1cc(C#CC#CC2CC2)ccc1C(=O)N[C@H](C(=O)NO)[C@@H](C)O`, the MIC amounted to 10 µg/mL (≈ 28.1 µM) in [1], 10 µg/mL in [2], 2.5 µg/mL in series [3] and 1.25 µg/mL in series [4].
With `C[C@@H](O)[C@H](NC(=O)c1ccc(C#Cc2ccc(CN3CCOCC3)cc2)cc1)C(=O)NO`, the MIC in series [3] and in series [4] was 0.156 µg/mL throughout.
Turning to `C[C@@H](O)[C@H](NC(=O)c1ccc(C#CC#CC2CC2)cc1[N+](=O)[O-])C(=O)NO`, the MIC was found to be 5 µg/mL (≈ 13.5 µM) in series [1], 5 µg/mL in series [2], 0.4 µg/mL in [3] and 0.6 µg/mL in [4].
On to `C[C@@H](O)[C@H](NC(=O)c1ccc(C#CC#CC2CC2)cc1N)C(=O)NO`, for which the MIC came out at 0.625 µg/mL (≈ 1.83 µM) in series [1], 0.625 µg/mL in [2], 0.04 µg/mL in series [3] and 0.04 µg/mL in [4].
With `C[C@@H](O)[C@@H](CN(O)C=O)NC(=O)c1ccc(C#CC#CC2CC2)cc1`, the MIC in [1], in series [2], in [3] and in series [4] was greater than 256 µg/mL throughout.
For the compound `CC(CCc1ccc(-c2ccccc2)cc1)(C(=O)Nc1ccccc1N)S(C)(=O)=O` (stereo not given), the MIC in [1], in series [2], in [3] and in series [4] was greater than 256 µg/mL in each case.
For the compound `Cc1cc(C#CC#CC2CC2)ccc1C(=O)N[C@H](C(=O)NO)[C@@H](C)O`, the MIC in series [1] worked out at 5 µg/mL (≈ 14.7 µM); in [2] it was 5 µg/mL; in series [3] it was 0.156 µg/mL; in series [4], 0.156 µg/mL.
Turning to `C[C@@H](O)[C@H](NC(=O)c1ccc(C#CC#CC2CC2)cc1O)C(=O)NO`, the MIC was 0.625 µg/mL (≈ 1.83 µM) in series [1], 0.625 µg/mL in series [2], 0.156 µg/mL in series [3] and 0.078 µg/mL in [4]. For the same compound, in series [5], the intrinsic clearance is 8 mL/min/g. Besides, the “intrinsic clearance in liver microsomes” value in [6] is given as 9. In addition, the half-life at 0.1 µM worked out at 3.88 h in series [7] and 4.55 h in series [8].
Consider `C[C@@H](O)[C@H](NC(=O)c1ccc(C#CC#CC2CC2)cc1F)C(=O)NO`, for which the MIC in series [1] was determined as 2.5 µg/mL (≈ 7.26 µM); in [2], 1.25 µg/mL; in series [3] it was 0.31 µg/mL; in series [4] it was 0.31 µg/mL. Further, the intrinsic clearance in series [5] was found to be 11 mL/min/g. Also, the “intrinsic clearance in liver microsomes” value in series [6] turned out to be 25. In addition, the results for the half-life at 0.1 µM in [7] and in series [8] were 1.42 h and 3.33 h, respectively.
On to `CC(C)(N)[C@H](NC(=O)c1ccc(C#CC#CC2CC2)cc1F)C(=O)NO`, for which the MIC in series [1] came out at 0.625 µg/mL (≈ 1.75 µM); in series [2], 0.31 µg/mL; in [3] it was 0.04 µg/mL; in [4], 0.078 µg/mL. For the same compound, the intrinsic clearance in [5] is 0 mL/min/g. Further, the “intrinsic clearance in liver microsomes” value in [6] was determined as 9. The Stability result in [9] was “Stable”. The half-life at 0.1 µM in [7] worked out at 4 h.
For the compound `C[C@@H](O)[C@H](NC(=O)c1ccc(C#CC#CC2CC2)cc1)C(=O)NO`, the MIC was 0.19 µg/mL (≈ 0.582 µM) in [1], 0.19 µg/mL in [2], 0.024 µg/mL in series [3] and 0.024 µg/mL in series [4]. Also, in series [5], the intrinsic clearance was 3 mL/min/g. Also, the “intrinsic clearance in liver microsomes” value in series [6] stood at 11. The half-life at 0.1 µM in series [7] came out at 3.17 h; in series [8], 10.6 h.
On to `C[C@@H](O)[C@H](NC(=O)[C@@H]1CN(c2ccc(C#Cc3ccccc3)cc2)C(=O)O1)C(=O)NO`, for which the MIC in series [1], in series [2], in series [3] and in series [4] was greater than 256 µg/mL each time.
As to `CC(CCc1ccc(-c2ccccc2)cc1)(C(=O)NO)S(C)(=O)=O` (racemic), the MIC in series [1] worked out at 0.31 µg/mL (≈ 0.892 µM); in [2], 0.31 µg/mL; in series [3], 0.4 µg/mL; in series [4], 1 µg/mL.
As to `C[C@@H](O)[C@H](NS(=O)(=O)c1ccc(C#CC#CC2CC2)cc1)C(=O)NO`, the MIC in series [1] was 100 µg/mL (≈ 276 µM); in series [2], 50 µg/mL; in [3] it was 20 µg/mL; in series [4], 40 µg/mL.
In the same order, the values of `C[C@@H](O)[C@H](NC(=O)[C@@H]1CN(c2ccc(-c3ccccc3)cc2)C(=O)O1)C(=O)NO` are greater than 256 µg/mL, greater than 256 µg/mL, greater than 256 µg/mL and greater than 256 µg/mL.
In the same order, the values of `C[C@@H](O)[C@H](NC(=O)[C@H]1CN(c2ccc(C#Cc3ccccc3)cc2)C(=O)O1)C(=O)NO` are greater than 256 µg/mL, greater than 256 µg/mL, greater than 256 µg/mL and greater than 256 µg/mL.
With `C[C@@H](O)[C@H](NC(=O)c1ccc(C#CC#CC2CC2)cc1Cl)C(=O)NO`, the MIC in series [1] is 6.25 µg/mL (≈ 17.3 µM); in series [2] it was 6.25 µg/mL; in [3] it was 0.048 µg/mL; in series [4], 0.192 µg/mL.
Consider `CC(C)(N)[C@H](NC(=O)c1ccc(C#CC#CC2CC2)c(F)c1)C(=O)NO`, for which the MIC in series [1] was found to be 0.31 µg/mL (≈ 0.867 µM); in [2] it was 0.31 µg/mL; in [3], 0.019 µg/mL; in series [4], 0.019 µg/mL. For the same compound, the intrinsic clearance in [5] worked out at 0 mL/min/g. Also, the “intrinsic clearance in liver microsomes” value in series [6] is given as 16. For the same compound, in [9], the Stability entry is recorded as “Stable”. Also, the half-life at 0.1 µM in series [7] is 2.25 h.
Regarding `C[C@@H](O)[C@H](NC(=O)c1ccc(C#CC#CC2CC2)cc1C#N)C(=O)NO`, the MIC in series [1] worked out at 40 µg/mL (≈ 114 µM); in [2], 40 µg/mL; in [3], 40 µg/mL; in series [4] it was 80 µg/mL.
For `C[C@@H](O)[C@H](NC(=O)c1ccc(C#CC#CC2CC2)cc1OC(F)F)C(=O)NO`, the MIC in [1] is 10 µg/mL (≈ 25.5 µM); in [2], 10 µg/mL; in series [3] it was 0.31 µg/mL; in [4] it was 0.156 µg/mL.
As to `CC(C)(N)[C@H](NC(=O)c1ccc(C#CC#CC2CC2)cc1)C(=O)NO`, the MIC in [1] is 0.156 µg/mL (≈ 0.46 µM); in series [2] it was 0.078 µg/mL; in series [3], 0.012 µg/mL; in series [4], 0.039 µg/mL. Further, the intrinsic clearance in series [5] is recorded as 1 mL/min/g. The “intrinsic clearance in liver microsomes” value in [6] came out at 10. The half-life at 0.1 µM in series [7] was determined as 3.43 h; in series [8], 56.9 h.

These data come from ChEMBL document CHEMBL4177739, “Design, synthesis and structure-activity relationship evaluation of novel LpxC inhibitors as Gram-negative antibacterial agents” (Bioorg Med Chem Lett, 2018).
